Measured values published in US20240285631A1, “METHODS OF TREATING VASCULAR MALFORMATIONS” (priority 2023, published 2024).
Entries after “also recorded” stand apart in the source; their conditions may differ.

Tests used:
[1] = system: AVMs induced by BMP9/10 blocking antibodies; assay: Retinal vasculature analysis in BMP9/10 blocking antibody mouse model of HHT; assay type: in vivo; settings: BMP9/10 Abs P2 and P4
[2] = system: retinal ECs of BMP9/10 Abs-treated Fucci2 animals; assay: Endothelial cell cycle state in BMP9/10 Abs-treated Fucci2 reporter pups; assay type: in vivo, mouse; settings: BMP9/10 Abs + CDK4/6i, P7 Fucci2
Description: (§1) All animal protocols and procedures were approved by the University of Virginia Animal Care and Use Committee and complied with all ethical regulations. Cdh5Cre^ERT21Rha^43 and Alk1^flox/flox were gifted from Drs. Ralf Adams and Paul Oh, respectively. R26p-Fucci2 (Fucci2) (Accession #CDB0203T)^44 and C57bl/6 mice were purchased from Riken and Jax, respectively. Cdh5Cre^ERT2 mice were crossed with Alk1^flox/flox mice (6-8-week-old) to generate Alk1EC^iKO pups. Cre activity in Alk1EC^iKO was induced in pups at P3 via a single intraperitoneal (i.p.) injection of Tamoxifen (Tx; Sigma T5648, […] of 4 mg/ml, resuspended in 10% ethanol and 90% corn oil). Alk1^flox/flox littermates were used as controls. Alk1EC^iKO mice were crossed with Fucci2 mice to generate Alk1EC^iKO-Fucci2 pups.

[3] = system: vascular malformations in Alk1EC^iKO pups; assay: Retinal vasculature analysis in Alk1EC^iKO pups (HHT type 2 model); assay type: in vivo, mouse
Description: FIG. 5A illustrates a timeline used for tamoxifen (Tx) injection and CDK4/6i treatment of Alk1EC^iKO pups. FIG. 5B illustrates representative images showing retinal vasculature labelled with IB4 from control, Alk1EC^iKO, and Alk1EC^iKO+CDK4/6i-treated P5 animals. Bar graphs showing (FIG. 5C) quantification of AV shunt number per retina, (FIG. 5D) vascular density, and (FIG. 5E) vascular progression. (N=8 to 10 retinas/group, at least 4 mice). Data are mean±SEM, One-way ANOVA, *p≤0.05, **p≤0.01). FIG. 5F illustrates a timeline used for Tx injection and CDK4/6i treatment of Alk1EC^iKO pups for blue latex dye perfusion experiments. FIG. 5G illustrates blue latex dye vascular perfusion in brains from control, Alk1EC^iKO, and Alk1EC^iKO+CDK4/6i-treated P7 animals. […] FIG. 5H illustrates the quantification of left middle cerebral artery (MCA) and basilar artery (BA) in control, Alk1EC^iKO, and Alk1EC^iKO+CDK4/6i-treated animals. FIG. 5I illustrates the quantification of the number of latex filled veins in control, Alk1EC^iKO, and Alk1EC^iKO+CDK4/6i-treated animals. (N=4 to 6 mice/group. Data are mean±SEM, one-way ANOVA with Holm-Šidàk's multiple comparison test, *p≤0.05, **p≤0.01, ***p<0.001). Scale bar (G): 4 mm.
About 50% of HHT patients harbor mutations in the Acvrl1 gene^1, which encodes for the ALK1 receptor. To validate the clinical relevance of the use of Palbociclib for the treatment of HHT, we crossed Cdh5Cre^ERT2 mice with Alk1^flox/flox mice (6-8-week-old) to generate an endothelial-specific inducible deletion of Alk1 (referred to as Alk1EC^iKO), which is an established preclinical mouse model of human HHT type 2^12,25. Neonatal Alk1EC^iKO pups received a single i.p. injection of tamoxifen at P3 to induce Alk1 gene deletion and were then treated with Palbociclib via oral gavage at P4, and their retinal vasculature was analyzed at P5 (FIG. 5A). […] Due to the relatively short survival time post-tamoxifen induction in Alk1EC^iKO mice (approximately 48 hours), our study is limited to a single Palbociclib injection, which represents a technical challenge in exploring additional treatments. […] Single Cell RNA sequencing analysis of Palbociclib effects on endothelial arteriovenous identity in Alk1EC^iKO mice.
With bulk RNAseq analysis, we further investigated the effects of Palbociclib on these pathways in vivo on P7 retinal ECs from control pups or those treated with anti-BMP9/10, with or without CDK4/6i, as outlined in FIG. 2A. […] We also investigated the potential role of FLT1, a decoy receptor for VEFG-A, in the mechanism of action of Palbociclib, by injecting i.p. FLT1 blocking antibodies in Alk1EC^iKO mice simultaneously with CDK4/6i treatment (FIG. 8G).
as §1

[4] = system: VEGF-A signaling; assay: VEGF-A-induced AKT phosphorylation in Alk1 siRNA-silenced HUVECs; assay type: cell-based, human; settings: treated or not with Palbociclib
Description: Next, we treated HUVECs with Alk1 siRNA to silence Alk1 and test the VEGF-A-induced response, with or without Palbociclib treatment, using pAKT activation as a readout.

[5] = tamoxifen P3, Palbociclib P4, P5

CC(=O)c1c(C)c2cnc(Nc3ccc(N4CCNCC4)cn3)nc2n(C2CCCC2)c1=O [Palbociclib, 6-acetyl-8-cyclopentyl-5-methyl-2-[5-(1-piperazinyl)pyridine-2-ylamino]pyrido[2,3-d]pyrimidin-7(8H)-one]
arterial vessel diameter ([1]; CDK4/6i P4-P6, P7): not arterial vessel diameters | retinal vascular density ([1]; CDK4/6i P4-P6, P7): less hyperdense retinal vascular plexi | retinal vascular progression ([1]; CDK4/6i P4-P6, P7): normalized retinal vascular progression | venous vessel diameter ([1]; CDK4/6i P4-P6, P7): normalized | AV shunt number per retina ([1]; CDK4/6i oral gavage 120 mg/kg/d P4, P5, P6, retinas at P7, vs BMP9/10 Abs only): fewer AV shunts | EC cell cycle state (early G1, late G1, S/G2/M) in veins, arteries and capillaries [2]: predominantly in late G1 state | vascular malformations in retina of Fucci2 pups [2]: vascular malformations were absent | AV shunt number per retina (FLT1 experiment) ([3]; Alk1^iECKO mice, Palbociclib alone, vs untreated): developed less AV shunts | AV shunt number per retina with FLT1 blocking antibodies ([3]; Alk1^iECKO mice, Palbociclib plus i.p. FLT1 blocking antibodies (1.6 mg/kg)): numerous AV shunts, comparable to untreated | vascular density at the front of the retinal vascular plexi [3, 5]: prevented the formation of hyperdense and disorganized vascular networks | vascular progression [3, 5]: normalized vascular progression | number of AVMs (AV shunts) per retina ([3]; tamoxifen P3, Palbociclib oral gavage P4, retina at P5, vs untreated Alk1EC^iKO): significantly lower number of AVMs; also recorded: prevented the development of arterio-venous malformations | pAKT activation induced by VEGF-A in Alk1 silenced HUVECs [4]: did not detect any differences
